# Where two headings read alike, the source gives them in different places.
# Legend:
# N. gonorrhoeae = N. gonorrhoeae MMX 683 (ATCC 49226); cited from earlier work
# [1] = system: lipid synthesis in E. coli ATCC 25922; assay: Macromolecular synthesis assay: lipid synthesis ([3H] glycerol); assay type: cell-based, Escherichia coli; settings: control drug, concentration not given
# Experimental: Chloroform (125 μL) was then added to each reaction and vortexed, followed by the addition of 125 μl dH2O and vortexing. Reactions were centrifuged at 13,000 rpm in a microfuge for 10 min, and then 150 μl of the organic phase was transferred to a scintillation vial and allowed to dry in a fume hood for at least 1 hr.
# E. coli ATCC 25922 = assay: Broth microdilution MIC (Example 16)
# Pseudomonas aeruginosa [2] = assay: Broth microdilution MIC (Example 12); assay type: cell-based
# P. aeruginosa [3] = settings: P. aeruginosa isolate 103; CLSI QC range in parenthesis; cited from earlier work
# P. aeruginosa [4] = assay: MIC testing of CF isolates and control strain
# Escherichia coli = assay: Broth microdilution MIC (Example 12); assay type: cell-based
# [5] = system: Burkholderia cepacia complex; assay: Checkerboard FIC/FICI assay; assay type: cell-based, Burkholderia spp.; settings: during FIC testing
# [6] = system: Burkholderia cepacia complex; assay type: cell-based, Burkholderia spp.; settings: initial MIC testing
# P. aeruginosa [7] = settings: P. aeruginosa isolate 103; CLSI QC range in parenthesis; cited from earlier work; remark: listed apart in the source
# M. abscessus complex = assay: MIC testing of CF isolates; assay type: cell-based, Mycobacterium abscessus
# S. maltophilia = assay: MIC testing of CF isolates; assay type: cell-based, Stenotrophomonas maltophilia; settings: S. maltophilia (SM21)
# B. multivorans = assay: MIC testing of CF isolates; assay type: cell-based, Burkholderia multivorans; settings: B. multivorans (B. cepacia complex) (BC5b)
# B. cenocepacia = assay: MIC testing of CF isolates; assay type: cell-based, Burkholderia cenocepacia
# B. cepacia = assay: MIC testing of CF isolates; assay type: cell-based, Burkholderia cepacia; settings: B. cepacia (B. cepacia complex) (BC17)
# Pseudomonas aeruginosa [8] = settings: P. aeruginosa ATCC 27853; CLSI established QC range; cited from earlier work
# Klebsiella pneumoniae = assay: Broth microdilution MIC (Example 12); assay type: cell-based
# Acinetobacter baumannii = assay: Broth microdilution MIC (Example 12); assay type: cell-based
# Achromobacter spp. = assay: MIC testing of CF isolates; assay type: cell-based
# [9] = system: RNA synthesis in E. coli MMX 121 (K12 tolC mutant); assay type: cell-based, Escherichia coli; settings: 8X the MIC
# [10] = system: RNA synthesis in E. coli ATCC 25922; assay type: cell-based, Escherichia coli; settings: 8X the MIC
smiles,measurement,setting,value
CO/N=C(\C(=O)N[C@@H]1C(=O)N2C(C(=O)O)=C(CSc3nc(=O)c(=O)[nH]n3C)CS[C@H]12)c1csc(N)n1 [Ceftriaxone],CLSI QC range of MIC,N. gonorrhoeae,(0.004-0.015) μg/mL
Oc1cc(Cl)ccc1Oc1ccc(Cl)cc1Cl [irgasan],inhibition of lipid synthesis,[1],63.1%
same,MIC,"E. coli ATCC 25922; E. coli ATCC 25922, inoculum 1",0.12 µg/mL
same,MIC,"E. coli ATCC 25922; E. coli ATCC 25922, inoculum 2",0.12 µg/mL
same,MIC,"E. coli ATCC 25922; E. coli ATCC 25922, inoculum 3",0.12 µg/mL
NCC[C@H](O)C(=O)N[C@@H]1C[C@H](N)[C@@H](O[C@H]2O[C@H](CN)[C@@H](O)[C@H](O)[C@H]2O)[C@H](O)[C@H]1O[C@H]1O[C@H](CO)[C@@H](O)[C@H](N)[C@H]1O [AMK],MIC,"Pseudomonas aeruginosa [2]; P. aeruginosa ATCC 27853, ATCC QC organism (Table 102)",2 µg/mL
same,MIC,"Pseudomonas aeruginosa [2]; P. aeruginosa CDC 230, VIM/OXA",>64 µg/mL
same,MIC,"Pseudomonas aeruginosa [2]; P. aeruginosa CDC 231, KPC/OXA",8 µg/mL
same,MIC,"Pseudomonas aeruginosa [2]; P. aeruginosa CDC 246, NDM/OXA",>64 µg/mL
same,MIC,"Pseudomonas aeruginosa [2]; P. aeruginosa CDC 250, NDM/OXA",>64 µg/mL
same,MIC,"Pseudomonas aeruginosa [2]; P. aeruginosa CDC 356, KPC",2 µg/mL
same,MIC,"Pseudomonas aeruginosa [2]; P. aeruginosa CDC 439, IMP",>64 µg/mL
same,MIC,"Pseudomonas aeruginosa [2]; P. aeruginosa CDC 444, VIM",>64 µg/mL
same,MIC,"Pseudomonas aeruginosa [2]; P. aeruginosa CDC 457, VIM",2 µg/mL
same,MIC,"Pseudomonas aeruginosa [2]; P. aeruginosa CDC 516, KPC/AmpC",2 µg/mL
same,MIC,"Pseudomonas aeruginosa [2]; P. aeruginosa CDC 518, KPC/AmpC",16 µg/mL
same,CLSI QC range of MIC,P. aeruginosa [3],(1-4) μg/mL
same,MIC,P. aeruginosa [4],>64 µg/mL
same,MIC,"P. aeruginosa [4]; P. aeruginosa (AGR1), CF isolate",16 µg/mL
same,MIC,"Escherichia coli; E. coli ATCC 25922, ATCC QC organism (Table 102)",1 µg/mL
same,MIC,"Escherichia coli; E. coli ATCC 35218, ATCC QC organism (Table 102)",1 µg/mL
same,MIC,"Escherichia coli; E. coli ATCC 35218, ESBL",1 µg/mL
same,MIC,"Escherichia coli; E. coli ATCC BAA-2471, NDM",64 µg/mL
same,MIC,"Escherichia coli; E. coli CDC 114, ESBL/KPC",1 µg/mL
same,MIC,"Escherichia coli; E. coli CDC 118, ESBL/NDM",>64 µg/mL
same,MIC,"Escherichia coli; E. coli CDC 435, NDM",>64 µg/mL
same,MIC,"Escherichia coli; E. coli CDC 451, KPC",4 µg/mL
same,MIC,"Escherichia coli; E. coli CDC 503, ESBL/NDM",>64 µg/mL
same,MIC,"Escherichia coli; E. coli MMX 5745, KPC",0.5 µg/mL
same,MIC,"Escherichia coli; E. coli MMX 5755, ESBL",16 µg/mL
same,MIC,"Escherichia coli; E. coli MMX 5756, ESBL",64 µg/mL
same,MIC,"Escherichia coli; E. coli MMX 5758, ESBL",1 µg/mL
same,MIC,[6]; B. cenocepacia isolate 0548 (CIP-R),256 µg/mL
same,MIC,[6]; B. cenocepacia isolate 1631,256 µg/mL
same,MIC,[6]; B. cenocepacia isolate 1783,256 µg/mL
same,MIC,[6]; B. cenocepacia isolate 8555,256 µg/mL
same,MIC,[6]; B. cepacia isolate 0546,64 µg/mL
same,MIC,[6]; B. cepacia isolate 1793,64 µg/mL
same,MIC,[6]; B. cepacia isolate 9040,8 µg/mL
same,MIC,[6]; B. multivorans isolate 5665 (CIP-I),256 µg/mL
same,MIC,[6]; B. multivorans isolate 8952 (CIP-I),64 µg/mL
same,CLSI QC range of MIC,P. aeruginosa [7],(1-4) μg/mL
same,MIC,M. abscessus complex; M. abscessus/massiliense complex (AMT0068-40),32^2 μg/mL
same,MIC,M. abscessus complex; M. abscessus/massiliense complex (AMT0119-7),32^2 μg/mL
same,MIC,"M. abscessus complex; M. abscessus/massiliense complex (AMT0493-2), AMK R",>64^2 μg/mL
same,MIC,M. abscessus complex; M. abscessus/massiliense complex (AMT01130-8),16^2 μg/mL
same,MIC,M. abscessus complex; M. abscessus/massiliense complex (AMT1539),32^2 μg/mL
same,MIC,"M. abscessus complex; M. abscessus/massiliense complex (ATCL119977), Macrolide R (inducible)",8^2 μg/mL
same,MIC,S. maltophilia,64 µg/mL
same,MIC,B. multivorans,>64 µg/mL
same,MIC,B. cenocepacia; B. cenocepacia (B. cepacia complex) (AU197),>64 µg/mL
same,MIC,B. cenocepacia; B. cenocepacia (B. cepacia complex) (BC15),>64 µg/mL
same,MIC,B. cepacia,>64 µg/mL
same,QC range of MIC,Pseudomonas aeruginosa [8],(1-4) μg/mL
same,MIC,"Acinetobacter baumannii; A. baumannii CDC 273, ESBL/OXA",>64 µg/mL
same,MIC,"Acinetobacter baumannii; A. baumannii CDC 274, ESBL/OXA",16 µg/mL
same,MIC,"Acinetobacter baumannii; A. baumannii CDC 275, ESBL/OXA",>64 µg/mL
same,MIC,"Acinetobacter baumannii; A. baumannii CDC 277, ESBL/OXA",16 µg/mL
same,MIC,"Acinetobacter baumannii; A. baumannii CDC 307, OXA",>64 µg/mL
same,MIC,"Acinetobacter baumannii; A. baumannii CDC 308, ESBL/OXA",>64 µg/mL
same,MIC,"Acinetobacter baumannii; A. baumannii CDC 311, OXA",>64 µg/mL
same,MIC,"Acinetobacter baumannii; A. baumannii CDC 312, OXA",1 µg/mL
same,MIC,"Acinetobacter baumannii; A. baumannii CDC 313, ESBL/OXA",4 µg/mL
same,MIC,"Acinetobacter baumannii; A. baumannii NCTC 13304, OXA",0.5 µg/mL
same,MIC,Achromobacter spp.; A. xylosoxidans (AX4),>64 µg/mL
same,MIC,Achromobacter spp.; Achromobacter spp. (AX1),64 µg/mL
CO[C@H]1/C=C/O[C@@]2(C)Oc3c(C)c(O)c4c(O)c(c(/C=N/N5CCN(C)CC5)c(O)c4c3C2=O)NC(=O)/C(C)=C\C=C\[C@H](C)[C@H](O)[C@@H](C)[C@@H](O)[C@@H](C)[C@H](OC(C)=O)[C@@H]1C [rifampicin],inhibition of RNA synthesis,[9],91.9%
same,inhibition of RNA synthesis,[10]; initial assay,88.5%
same,inhibition of RNA synthesis,[10]; repeat assay,89.4%
same,MIC,"E. coli ATCC 25922; Escherichia coli, ATCC25922",8 µg/mL
same,MIC,"E. coli ATCC 25922; Escherichia coli, ATCC25922, E. coli ATCC 25922, inoculum 1",8 µg/mL
same,MIC,"E. coli ATCC 25922; Escherichia coli, ATCC25922, E. coli ATCC 25922, inoculum 2",8 µg/mL
